From PubChem BioAssay (NCI)
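Where inhibition never reached the appropriate level, the endpoint shown equals the highest concentration tested. Otherwise, values were interpolated linearly from a five-concentration, 48-hour dose response in 96-well plates. The concentration for 50% growth inhibition is given as GI50. TGI marks complete inhibition of growth.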

System: MDA-MB-468 breast
Test: growth of human tumour cells (NCI), 48 h

Row | SMILES | GI50 [µM] | TGI [µM]
1 | Oc1c(Cl)cc(Cl)c(Cl)c1Cc1c(O)c(Cl)cc(Cl)c1Cl | 0.661 | 8.45
2 | Fc1ccc(C2CC(c3cccc(Nc4ccncc4)c3)=NN2c2ccccc2)cc1 (centres undefined) | 1.54 | 3.37
3 | Cn1cc(Nc2nccc(-c3ccc4c(c3)CN(C3COC3)CC[C@H]4NC(=O)c3cn(C(C)(C)C)nn3)n2)cn1 | 39 | > 100
4 | COC(=O)C1C(=O)C(C(=O)OC)C2CCC1N2C (centres undefined) | 69.5 | > 100
5 | N#Cc1c(-c2ccccc2)nc(SCC(O)CN2CCOCC2)nc1N1CCOCC1 (centres undefined) | 2.16 | 21.5
6 | Nc1ncc(-c2ccc3ncnc(N4CCc5cc(F)c(Cl)cc54)c3c2)cc1C=O | 0.306 | 1.63
7 | O=C(Nc1nc2ccc(OC(F)(F)F)cc2s1)c1ccc(F)cc1 | 2.36 | 7.36
8 | CN1C(=O)[C@@H](CC2CCCC2)N(C2CCCC2)c2nc(Nc3cc(Cl)c(O)c(Cl)c3)ncc21 | 19.1 | 89.9
9 | Cc1cc2c(C(C)C)c(O)c(O)c(/C=N/O)c2c(O)c1-c1c(C)cc2c(C(C)C)c(O)c(O)c(/C=N/O)c2c1O | 2.05 | 6.44
10 | N#Cc1ncc(-c2ccc(C(F)(F)F)cc2)c(NC2CCCCCC2)n1 | 4.16 | > 100
11 | Cn1ccc(S(=O)(=O)N2CCC[C@H](Nc3nccc(-c4c(-c5cccc(O)c5)nc5occn45)n3)C2)n1 | 8.15 | 31.9
12 | Oc1ccc(/C=N/NC(=S)Nc2ccccc2)nc1 | 1.32 | 4.4
13 | Cc1ccc2c(-c3ccnc(Nc4cccc(C(F)(F)F)c4)n3)c(-c3ccccc3)nn2n1 | 0.509 | 4.58
14 | COc1ccc(-c2cc(-c3ccc(Cl)cc3)nc(SCCCC(=O)NO)n2)cc1OC | 1.17 | 4.27
15 | O=C1NC(=NCCc2ccccc2F)S/C1=C\c1ccc2ncccc2c1 | 2.67 | > 18.6
16 | C/C=C(/C)C(=O)OC1C=C(CO)C(=O)C(OC(=O)C2(C)OC2C)C1C(C)C (centres undefined) | 1.46 | 3.46
17 | CCN(CC)CCOc1ccc2c(-c3ccccc3)c(-c3ccc(OC)cc3)c(=O)oc2c1 | 2.58 | 8.73
18 | CC(C)(Oc1cccc(N2CCC[C@@H](C(=O)N(Cc3ccc(-c4cn[nH]c4)cc3)C3CC3)C2)c1)C(=O)N1CCNCC1 | 2.23 | 6.8
19 | C#Cc1ccc(C(=O)NCc2ccc(/C=C/C(=O)c3nccn3C)cc2)cc1 | 2.6 | 8.76
20 | CC(C)=CCc1c2c(c(O)c3c1O[C@]14C(=C[C@@H]5C[C@H]1C(C)(C)O[C@@]4(C/C=C(/C)C(=O)O)C5=O)C3=O)C=CC(C)(C)O2 | 15.8 | 35.5

Row | SMILES | GI50 [µM] | TGI [µM]
21 | CC[C@]1(O)CC2CN(CCc3c([nH]c4ccccc34)C(C(=O)OC)(c3cc4c(cc3OC)N(C=O)[C@H]3[C@@](O)(C(=O)OC)[C@H](OC(C)=O)[C@]5(CC)[C@@H]6C[C@@H]6CN6CC[C@]43[C@@H]65)C2)C1 (some centres undefined) | < 0.00325 | < 0.00325
22 | CC(C)N(CCNc1nc(C(Cl)(Cl)Cl)nc2cc(Cl)ccc12)C(C)C | 1.38 | 2.82
23 | COc1cc(C2C=C(C)N=C3SC=C(C)N32)cc(OC)c1OC (centres undefined) | 1.12 | 2.67
24 | CN(C)C/C=C/C(=O)Nc1ccc(C(=O)Nc2cccc(Nc3ncc(Cl)c(-c4c[nH]c5ccccc45)n3)c2)cc1 | 0.018 | 0.043
25 | Cc1ccc(NC(=O)c2cc(/C=C/C(=O)NO)cc(C(F)(F)F)c2)cc1Nc1nccc(-c2cccnc2)n1 | 1.43 | 3.94
26 | Cc1c(Br)c(Br)c2c3c1nc(N1CCNCC1)n3CCC2 | 1.6 | 3.31
27 | Cc1ncnc2c1ccn2[C@@H]1C[C@H](Oc2cc(C(F)F)c(F)c3c2CNCC3)[C@@H](O)[C@H]1O | > 100 | > 100
28 | COc1cccc(N2C(=N)/C(=C3\Nc4ccccc4S3)CC2=O)c1 | 26.2 | > 100
29 | Cc1cc(NS(=O)(=O)c2ccc(-c3cnc(C4CC4)o3)cc2)ccc1Cl | 0.165 | 12.7
30 | Cc1ccc(/C=C(/C#N)n2nnc3cccc(F)c32)cc1 | 0.702 | 6.3
31 | CN1CCC(=C(c2ccc(Cl)cc2)c2ccccn2)CC1 | 38.9 | > 100
32 | CCN1C[C@@H](C)n2c(c(O)c3c(=O)n(Cc4ccc(F)c(Cl)c4)nc(C(=O)NC)c32)C1=O | 2.51 | 8.18
33 | CCNCCS(=O)(=O)NC[C@@]1(c2ccccc2)SC(NC(=O)C(C)(C)C)=NN1C(=O)C(C)(C)C | < 0.01 | –
34 | CCN(CC)CCOc1ccc(/C(=C(\C)Cc2ccc(OC)cc2)c2ccc(O)cc2)cc1 | 1.54 | 3.05
35 | CC(=O)NC(CCc1ccc(Cl)c(Cl)c1)c1cccc(O)c(=O)c1 (centres undefined) | 0.442 | 4.07
36 | C=CCc1cc(O)ccc1O | 14 | 32.4
37 | CCCCNC(=O)CC1=C(C)/C(=C/c2[nH]c(-c3ccc[nH]3)cc2OC)N=C1C | 2.04 | 7.5
38 | CCOC(=O)C(Cc1ccccc1)n1c(O)c(/C=N/c2ncc(Cc3ccc(Cl)cc3Cl)s2)sc1=S (centres undefined) | 2.48 | 7.35
39 | COc1cc(C(=O)/C=C/c2cccnc2Nc2ccc(Cl)cc2)cc(OC)c1OC | 1.29 | 2.67
40 | CCN(CC)Cc1cc(Nc2ccnc3ccc(OC)cc23)ccc1O | 1.67 | 4.47
